Reference: patent US20250387392A1, “PYRIDAZINONE COMPOSITIONS FOR THE TREATMENT OF NEUROMUSCULAR CONDITIONS” (Edgewise Therapeutics, Inc., priority 2022, published 2025)

What was measured:
[1] = Muscle versus plasma concentration, muscle biopsy data from Phase 1 multiple ascending dose (MAD) study; assay type: in vivo, human
Protocol: (§1) In parallel, the plasma concentrations of Compound 1 were also monitored across different dosing regimens. For group with higher dosage (e.g., the 20 mg group), there were patients with high exposures or low exposures. It was unexpected that the patients with high exposures reached to a range of plasma concentration after dosing with 20 mg/day, which was more than 4-fold higher than the target exposures predicted from preclinical models. It is also worth noting that Compound 1 was enriched in muscle. The target muscle concentration of Compound 1 from patients with lower plasma concentration were 1,000-4000 ng/g from preclinical experiments. Using muscle biopsy data from a Phase 1 multiple ascending dose (MAD) study, this equates to approximately 15-70 ng/ml in BMD. In other words, Compound 1 was enriched by about 60 fold in muscle compared to plasma.

muscle injury proteins = assay: SOMAscan plasma proteomics, muscle injury proteins, BMD participants; assay type: in vivo, human
Protocol: (§2) Changes in muscle injury biomarkers such as creatine kinase (CK) or fast skeletal muscle troponin I (TNNI2) were assessed in clinical trial participants. The abundance of the biomarkers were measured by plasma proteomics (SOMAscan) in short- (1-2 months), mid- (3-4 months), or long-term (6-12 months) treatment. FIG. 14A illustrates the design of this study. 12 BMD participants, 7 of whom participated in the Phase I MAD study (Example 2), were enrolled and initially treated with 10 mg of Compound 1 daily, with dose-escalation from 10 mg to 20 mg daily as shown. Blood draws were taken at pre-dose baseline, then at regular intervals thereafter for analysis by SOMAscan, as well as quantification of CK activity or TNNI2 concentration by an activity assay or ELISA. SOMAscan is a multistep modified aptamer-based assay for highOthroughpu, sensitive, and unbiased biomarker measurement. Proteins in the samples were selectively bound with fluorescent aptamers, which were then measured on a chip array to yield values proportion to absolute concentrations.
In this study, SOMAscan was correlated to CK and TNNI2 to allow for direct conversion to absolute concentrations as well as used to identify large-scale proteomic differences between short- and long-term treatment with Compound 1. […] FIG. 14C illustrates SOMAscan-quantified CK and TNNI2 in blood. […]

[2] = Plasma PK of Compound 1 in adults with BMD (ARCH open label study); assay type: in vivo, human; design: Mean AUC for the Compound 1 Plasma PK levels: unit not given here; details: for Mean AUC for the Compound 1 Plasma PK levels: BMD patients
Protocol: FIG. 4 depicts plasma levels of Compound 1 and step count of BMD patients after four months of dosing.
(§3) FIGS. 2 to 8 depict positive 4-month interim results from the ongoing open label, single-center study assessing the safety, tolerability, and impact on muscle damage biomarkers, and pharmacokinetics (PK) of Compound 1 in adults with BMD. Twelve adults with BMD enrolled in the ARCH study, were dose escalated to daily 15 mg oral doses of Compound 1 at night after having initially received a 10 mg dose during the first 2 months of the study. […] All eligible patients have subsequently been dose escalated to 20 mg daily as per protocol.
(§4) FIGS. 10 to 13 depict promising 12-month results from the ongoing open label, single-center study assessing the safety, tolerability, and impact on muscle damage biomarkers, and pharmacokinetics (PK) of Compound 1 in adults with BMD. The different dosing regimens depicted in FIGS. 10A-10C, FIG. 111B, and FIGS. 12A-12F were carried out in three cohorts. One cohort has been dosed with 20 mg of Compound 1 for 12 months. A second cohort has been dosed with 15 mg of Compound 1 for 6 months. A third cohort has been dosed with 10 mg of Compound 1 for 2 months. […] Therefore, no treatment plans were discontinued due to AEs.
as §1

adults with BMD [3] = assay: Self-reported pain score in adults with BMD; assay type: in vivo, human
From the text: FIG. 8 depicts a decrease in the self-reported pain score in BMD patients at two and four months following the initial administration of Compound 1.
BMD individuals usually report more diffuse pain on spine and calves, See Jacques M F et al., Plos ONE (2019). Self-reported pain evaluation was collected and quantified in FIG. 13. […] Therefore, Compound 1 has shown to reduce pain associated with BMD.

[4] = system: proinflammatory cytokines and chemokines, anti-inflammatory interleukins; assay: SOMAscan plasma proteomics, inflammatory proteins, BMD participants; assay type: in vivo, human
Protocol: as §2
FIG. 14G and FIG. 14H illustrate favorable shift in inflammatory biomarkers with long-term treatment. […] The observed protein concentration changes after 6-12 months were consistent across study participants (FIG. 14H).

creatine kinase (CK) = assay: Muscle damage biomarker creatine kinase in adults with BMD (activity assay / SOMAscan); assay type: in vivo, human
Protocol: as §3
(§5) Treatment with Compound 1 led to a significant decrease in key biomarkers of muscle damage when assessed by laboratory assays. Importantly, CK and fast skeletal muscle troponin I were reduced by an average of 29% and 73%, respectively, after 4 months (FIG. 5).
(§6) Several biomarkers of muscle damage were tested to evaluate the efficacy of Compound 1 with different dosing regimens.
as §2
(§7) In this study, SOMAscan was correlated to CK and TNNI2 to allow for direct conversion to absolute concentrations as well as used to identify large-scale proteomic differences between short- and long-term treatment with Compound 1. FIG. 14B illustrates validation of CK and TNNI2, where a strong correlation between SOMAscan and absolute measurements of CK (left) and TNNI2 (right) was observed. FIG. 14C illustrates SOMAscan-quantified CK and TNNI2 in blood. […] Indicated significance was for all values at that treatment point relative to pre-dose baseline. FIG. 14D and FIG. 14E illustrate the effect of Compound 1 on muscle injury proteins. SOMAscan was used to analyze the effects of treatment on a set of proteins identified to correlate with bona-fide contraction-induced skeletal muscle injury (FIG. 14D).

adults with BMD [5] = assay: Safety and tolerability in adults with BMD (ARCH open label study); assay type: in vivo, human
Protocol: as §3, §4

adults with BMD [6] = assay: Functional tests (velocity, muscle strength) in adults with BMD; assay type: in vivo, human
From the text: FIG. 7 depicts increases in functional measures such; walk/run velocity, stair climb velocity, and grip strength in BMD patients at two and four months following the initial administration of Compound 1 in comparison to baseline measurements.
FIGS. 12A-12F depict the functional evaluation after the treatment of Compound 1. FIG. 12A depicts the average 10 m velocity in different dosing regimens. All p-values NS with a 7% decrease at 12 months. Last observation carried forward (all N=12, except for 2 missing values, month 4 and 8). FIG. 12B depicts the average 100 meter velocity in different dosing regimens. All p-values NS with 0% change at 12 months. Last observation carried forward (all N=12, except for 2 missing values, month 4 and 8). FIG. 12C depicts the average 4-stair climb time velocity in different dosing regimens. All p-values NS except that p value for 12 months was 0.016, which was 13% decrease at 12 months. FIG. 12D depicts the average maximum grip strength in different dosing regimens. p-values <0.05 at 4, 6, 8 month and NS at 12 months. There was a 8% decrease at 12 months. FIG. 12E depicts the average maximum knee extension strength in different dosing regimens. P-values <0.05 at 4, 8, 12 month. There was a 25% decrease at 12 months. FIG. 12F depicts the maximum elbow flexion strength in different dosing regimens. All p-values NS, and there was no change at 12 months.
Furthermore, functional tests were carried out to evaluate the functional improvements of muscle in the participants resulted from Compound 1. […] Different parameters of muscle strength were also quantified and evaluated in FIGS. 12D-12F.

adults with BMD [7] = assay: North Star Ambulatory Assessment (NSAA) in adults with BMD; assay type: in vivo, human; details: for NSAA outcome: 20 mg group
From the text: After 4 months of Compound 1 dosing, NSAA increased by an average of 1.17 points compared to pre-therapy baseline. […] The NSAA improvements observed after only 4 months of Compound 1 dosing differ from trajectories observed in the natural history study reported by Bello et al. (2016), one of the most comprehensively characterized BMD cohorts, in which the yearly decline was 1.22 NSAA points.
NSAA scores were also quantified based on FIGS. 9A-9C. Compound 1 stabilized NSAA scores by rescuing the natural history trend by about 1.6 points, and led to a trend towards an improvement in the scores. […] In comparison, the expected natural history decline in untreated patients is around −1.2 to −1.3 points.
Therefore, a lower exposure of Compound 1 (e.g., 10 mg) may have a more desired functional benefit.

[8] = Preclinical experiments, target muscle concentration; assay type: in vivo; details: from preclinical experiments
Protocol: as §1

[9] = system: fast skeletal muscle troponin I (TNNI2); assay: Muscle damage biomarker fast skeletal muscle troponin I in adults with BMD (ELISA / SOMAscan); assay type: in vivo, human
Protocol: as §3, §5, §6, §2, §7

myoglobin = assay: Muscle damage biomarker myoglobin in adults with BMD; assay type: in vivo, human
Protocol: as §4, §6

[10] = after 4 months, laboratory assay
[11] = short-term treatment (1-2 months), relative to pre-dose baseline
[12] = two and four months after initial administration (FIG. 7)

SMILES: O=c1ccc(-c2cnc(OCC(F)(F)F)nc2)nn1Cc1cncc(F)c1 [Compound 1]
- Kp ([1]; human, muscle, read-out: Enrichment in muscle compared to plasma): ~60
- Plasma concentration equating to target muscle concentration ([1]; in BMD, using Phase 1 MAD muscle biopsy data): 15 to 70 ng/mL
- Muscle injury proteins (SOMAscan) (muscle injury proteins; long-term treatments (6-12 months)): stable levels or further decreases
- Muscle injury proteins (SOMAscan) (muscle injury proteins; short-term treatment (1-2 months, 10 mg)): decreased from pre-dose baseline
- Mean AUC for the Compound 1 Plasma PK levels ([2]; 10 mg dose): 1,454
- Mean AUC for the Compound 1 Plasma PK levels ([2]; 15 mg dose): 2,299
- Mean AUC for the Compound 1 Plasma PK levels ([2]; 20 mg dose): 2,293
- Plasma concentration relative to target exposures predicted from preclinical models ([2]; 20 mg/day, patients with high exposures): more than 4 fold
- Self-reported pain scores (adults with BMD [3]; after 12 months of treatment (FIG. 13)): positive trend
- Self-reported pain score (adults with BMD [3]; two and four months after initial administration (FIG. 8)): decrease
- Proinflammatory cytokines and chemokines (SOMAscan) ([4]; after 6-12 months): very significantly reduced
- Anti-inflammatory interleukins (SOMAscan) ([4]; after long-term treatment (6-12 months)): increased
- Change of creatine kinase (CK) level (creatine kinase (CK); 10 mg dose): near maximal decreases
- Average reduction of CK (creatine kinase (CK); [10]): 29%
- Change of creatine kinase (CK) level (creatine kinase (CK); different dosing regimens up to 12 months (FIG. 10A)): sustained decrease
- SOMAscan-quantified circulating CK (creatine kinase (CK); [11]): reduced by short-term treatment
- Most common adverse events (adults with BMD [5]; 4-month interim): dizziness, drowsiness, and headache
- Tolerability (adults with BMD [5]; 4-month interim, 10 mg for 2 months then 15 mg daily oral at night, twelve adults with BMD): well-tolerated in all participants with no discontinuations or dose reductions
- Tolerability (adults with BMD [5]; 12-month results, 10, 15 and 20 mg doses): well tolerated at all doses without any severe adverse events
- Deterioration in 10 m velocity (adults with BMD [6]; 12-month results (FIG. 12A)): no statistically significant deterioration
- Deterioration in 100 meter velocity (adults with BMD [6]; 12-month results (FIG. 12B)): no statistically significant deterioration
- Deterioration in 4-stair climb time velocity (adults with BMD [6]; 12-month results (FIG. 12C)): no statistically significant deterioration
- Decrease in average 4-stair climb time velocity (adults with BMD [6]; at 12 months, p 0.016 (FIG. 12C)): 13%
- Decrease in average maximum knee extension strength (adults with BMD [6]; at 12 months, p <0.05 (FIG. 12E)): 25%
- Decrease in average 10 m velocity (adults with BMD [6]; at 12 months, p NS (FIG. 12A)): 7%
- Change in average 100 meter velocity (adults with BMD [6]; at 12 months, p NS (FIG. 12B)): 0%
- Decrease in average maximum grip strength (adults with BMD [6]; at 12 months, p NS (FIG. 12D)): 8%
- Change in maximum elbow flexion strength (adults with BMD [6]; at 12 months, p NS (FIG. 12F)): no change
- Muscle strength effect (adults with BMD [6]; some participants from the 20 mg group (FIGS. 12C-12F)): muscle strength weakness
- Grip strength versus baseline (adults with BMD [6]; [12]): increases
- Stair climb velocity versus baseline (adults with BMD [6]; [12]): increases
- Walk/run velocity versus baseline (adults with BMD [6]; [12]): increases
- NSAA outcome (adults with BMD [7]; participants under high exposures (negative changes in NSAA)): less optimal outcomes
- NSAA outcome (adults with BMD [7]; participants with the lower exposures): stable or the best improving NSAA scores
- Participants with the same or better NSAA scores (adults with BMD [7]; 12-month group (FIG. 11C)): about 75%
- NSAA rescue of the natural history trend (adults with BMD [7]; 12-month results (FIG. 11A)): about 1.6 points
- Average NSAA increase compared to pre-therapy baseline (adults with BMD [7]; after 4 months of dosing): 1.17 points
- Participants with functional improvement or no decline on NSAA relative to baseline (adults with BMD [7]; after 4 months of dosing): nine of the twelve
- Target muscle concentration of Compound 1 [8]: 1,000-4000 ng/g
- Change of TNNI2 level ([9]; 10 mg dose): near maximal decreases
- Average reduction of fast skeletal muscle troponin I [9, 10]: 73%
- Patients reaching fast skeletal muscle troponin I levels of unaffected adults ([9]; after 4 months, twelve participants): four patients achieving levels observed in unaffected adults
- Change of TNNI2 level ([9]; different dosing regimens up to 12 months (FIG. 10B)): sustained decrease
- SOMAscan-quantified circulating TNNI2 ([9]; longer-term treatment timepoints): reduced to nearly healthy levels
- SOMAscan-quantified circulating TNNI2 [9, 11]: reduced by short-term treatment
- Change of myoglobin level (myoglobin; 10 mg dose): near maximal decreases
- Change of myoglobin level (myoglobin; different dosing regimens up to 12 months (FIG. 10C)): sustained decrease
